US20180243325A1, “METHOD FOR INHIBITING ABSORPTION OF AND/OR PROMOTING EXCRETION OF LIPIDS USING D-PSICOSE” (CJ CHEILJEDANG CORPORATION, priority 2015, published 2018)

What was measured:
Format in all cases: in vivo, C57BL/6J mice
[1] = test system: high-fat diet-induced obese mice; assay: Plasma lipid profiles of high-fat diet-induced obese mice; settings: HFD+5% w/w in diet, 16 weeks
Experimental: (§1) First, 4-week-old male C57BL/6J mice (60 total) were purchased from Jackson Laboratory. The animals were acclimated to the vivarium in a thermo-hygrostat (20-23° C., 45-65%) under a 12 h light/dark cycle and fed a pelletized commercial non-purified diet for 1 week after arrival. The mice were then randomly divided into 6 groups (n=10) and fed the respective experimental diets for 16 weeks: normal diet group (ND, American Institute of Nutrition (AIN)-76 semi-synthetic diet), high-fat diet group (HFD, 20% fat+1% cholesterol based on AIN-76 diet), PSI group (HFD+5% D-psicose, w/w, Sigma Chemical Company), ERY group (HFD+5% erythritol, w/w, Sigma Chemical Company), GLU group (HFD+5% D-glucose, w/w, Sigma Chemical Company), and FRU group (HFD+5% D-fructose, w/w, Sigma Chemical Company). All high-fat diet-fed groups were allowed to ingest the same calories by pair feeding based on the PSI group. The mice had ad libitum access to distilled water during the experimental period. Their feed intakes and body weights were measured daily and biweekly, respectively. The organ weights and the adipose tissue weights of the mice were measured after sacrificing the animals. Plasma free fatty acid, phospholipid, apolipoprotein A-I (Apo A-I), and apolipoprotein B (ApoB B) levels were measured using Nittobo enzymatic kits (Nittobo medical Co., Tokyo, Japan). Plasma HDL-cholesterol, triglyceride (TG), and total cholesterol (total-C) levels were measured using Asan enzymatic kits (Asan, Seoul, South Korea).

[2] = test system: fatty acid synthase (FAS); assay: Hepatic lipid regulating enzyme activity: FAS; settings: FIG. 4B, liver cytoplasmic fraction, HFD+5% w/w in diet, 16 weeks
Experimental: First, 4-week-old male C57BL/6J mice (60 total) were purchased from Jackson Laboratory. The animals were acclimated to the vivarium in a thermo-hygrostat (20-23° C., 45-65%) under a 12 h light/dark cycle and fed a pelletized commercial non-purified diet for 1 week after arrival. The mice were then randomly divided into 6 groups (n=10) and fed the respective experimental diets for 16 weeks: normal diet group (ND, American Institute of Nutrition (AIN)-76 semi-synthetic diet), high-fat diet group (HFD, 20% fat+1% cholesterol based on AIN-76 diet), PSI group (HFD+5% D-psicose, w/w, Sigma Chemical Company), ERY group (HFD+5% erythritol, w/w, Sigma Chemical Company), GLU group (HFD+5% D-glucose, w/w, Sigma Chemical Company), and FRU group (HFD+5% D-fructose, w/w, Sigma Chemical Company). All high-fat diet-fed groups were allowed to ingest the same calories by pair feeding based on the PSI group. The mice had ad libitum access to distilled water during the experimental period. Their feed intakes and body weights were measured daily and biweekly, respectively. The organ weights and the adipose tissue weights of the mice were measured after sacrificing the animals. Samples were prepared and analyzed according to the method developed by Hulcher and Oleson. Specifically, the activity of fatty acid synthase (FAS) as a hepatic lipid regulating enzyme was measured by spectrophotometric assay according to the method described by Nepokroeff et al. Each sample was mixed with 100 μl of cytoplasmic fraction and the mixture was allowed to react at 30° C. for 2 min. A reduction in absorbance at 340 nm was measured. Fatty acid synthase (FAS) activity units were expressed as nanomoles (nmol) of NADPH oxidized for 1 min per mg of cytoplasmic fraction. Fatty acid β-oxidation activity was measured by monitoring the reduction of NAD^+ to NADH in the presence of palmitoyl-CoA, as described by Lazarow. β-oxidation activity units were expressed as nanomoles (nmol) of NADH produced for 1 min per mg of mitochondrial protein.

[3] = test system: high-fat diet-induced obese mice; assay: Hepatic tissue morphologies (H&E); settings: FIG. 4C, 200×, HFD+5% w/w in diet, 16 weeks
Experimental: as §1, with “animals.” for “animals. Plasma free fatty acid, phospholipid, apolipoprotein A-I (Apo A-I), and apolipoprotein B (ApoB B) levels were measured using Nittobo enzymatic kits (Nittobo medical Co., Tokyo, Japan). Plasma HDL-cholesterol, triglyceride (TG), and total cholesterol (total-C) levels were measured using Asan enzymatic kits (Asan, Seoul, South Korea).”
Liver tissues were removed from the mice in the normal diet group (ND) and high-fat diet groups (HFD, ERY, GLU, FRU, and PSI) and fixed in a buffer solution of 10% formalin. The fixed liver tissues were embedded in paraffin. […] sections were prepared from the liver tissues and their cross-sections were dyed with hematoxylin and eosin. Stained areas were observed using an optical microscope at a magnification of 200× (Nikon, Tokyo, Japan).

[4] = test system: FAS (fatty acid synthase, 14101); assay: Hepatic mRNA expression, real-time quantitative PCR: FAS; settings: FIG. 6, liver, HFD+5% w/w in diet, 16 weeks
Experimental: as §1, with “animals.” for “animals. Plasma free fatty acid, phospholipid, apolipoprotein A-I (Apo A-I), and apolipoprotein B (ApoB B) levels were measured using Nittobo enzymatic kits (Nittobo medical Co., Tokyo, Japan). Plasma HDL-cholesterol, triglyceride (TG), and total cholesterol (total-C) levels were measured using Asan enzymatic kits (Asan, Seoul, South Korea).”
Samples were prepared and analyzed as previously described. Specifically, total RNA was synthesized into cDNA using a QuantiTect Reverse Transcription kit (QIAGEN Gmb1h, Hilden, Germany). RNA expression was quantified with real-time quantitative PCR using a QuantiTect SYBR Green PCR kit (QIAGEN Gmb1h, Hilden, Germany). Primers were designed to detect FAS (fatty acid synthase, 14101), ACC1 (Acetyl-CoA carboxylase 1, 107476), CPT1α (Carnitine palmitoyltransferase 1α, 12894), and CPT2 (Carnitine palmitoyltransferase 2, 12896). GAPDH was used as an internal transcription marker. The reaction was performed a total of 40 cycles (each consisting of 15 sec at 94° C., 30 sec at 58° C., 30 sec at 72° C., and 15 sec at 65° C.). Fluorescence signals were monitored every cycle and the resulting threshold cycles (Ct) were analyzed. mRNA expression in each experimental group was quantified using a CFX96 Real time system (Bio-rad, USA).

## OC[C@@H](O)[C@@H](O)CO [ERY, erythritol]
[1]
  AI, atherogenic index, [(Total C) − HDL-C)]/HDL-C: 3.55
  APO-A I/APO-B: 3.16
  ApoA-I: 27.28 mg/dL
  ApoB: 8.61 mg/dL
  FFA (plasma free fatty acid): 0.53 mmol/L
  HDL-C: 1.22 mmol/L
  HTR, (HDL-C/Total-C) × 100: 23.95
  PL (plasma phospholipid): 135.46 mg/dL
  TG (plasma triglyceride): 1.25 mmol/L
  Total-C (plasma total cholesterol): 5.35 mmol/L
  nonHDL-C: 4.36 mmol/L
[2]
  hepatic FAS activity: increased significantly compared to those in the ND group
[3]
  accumulation / size of adipocytes in the liver tissues: more distinctly observed than in the liver tissues of the ND group
[4]
  hepatic mRNA expression level of FAS: significantly lower than those in the ND group

## O=C(CO)[C@@H](O)[C@H](O)[C@H](O)CO [FRU, D-fructose]
[1]
  AI, atherogenic index, [(Total C) − HDL-C)]/HDL-C: 4.55
  APO-A I/APO-B: 2.77
  ApoA-I: 27.69 mg/dL
  ApoB: 9.96 mg/dL
  FFA (plasma free fatty acid): 0.48 mmol/L
  HDL-C: 0.83 mmol/L
  HTR, (HDL-C/Total-C) × 100: 20.62
  PL (plasma phospholipid): 115.27 mg/dL
  TG (plasma triglyceride): 1.17 mmol/L
  Total-C (plasma total cholesterol): 4.14 mmol/L
  nonHDL-C: 3.32 mmol/L
[2]
  hepatic FAS activity: increased significantly compared to those in the ND group
[3]
  accumulation / size of adipocytes in the liver tissues: more distinctly observed than in the liver tissues of the ND group
[4]
  hepatic mRNA expression level of FAS: significantly lower than those in the ND group

## O=C[C@H](O)[C@@H](O)[C@H](O)[C@H](O)CO [GLU, D-glucose]
[1]
  AI, atherogenic index, [(Total C) − HDL-C)]/HDL-C: 3.76
  APO-A I/APO-B: 2.92
  ApoA-I: 27.23 mg/dL
  ApoB: 9.32 mg/dL
  FFA (plasma free fatty acid): 0.49 mmol/L
  HDL-C: 0.82 mmol/L
  HTR, (HDL-C/Total-C) × 100: 20.19
  PL (plasma phospholipid): 104.86 mg/dL
  TG (plasma triglyceride): 1.28 mmol/L
  Total-C (plasma total cholesterol): 4.07 mmol/L
  nonHDL-C: 3.25 mmol/L
[2]
  hepatic FAS activity: increased significantly compared to those in the ND group
[3]
  accumulation / size of adipocytes in the liver tissues: more distinctly observed than in the liver tissues of the ND group
[4]
  hepatic mRNA expression level of FAS: significantly lower than those in the ND group

## O=C(CO)[C@H](O)[C@H](O)[C@H](O)CO [PSI, D-psicose]
[1]
  APO-A I/APO-B: 3.80
  HTR, (HDL-C/Total-C) × 100: 42.98
  PL (plasma phospholipid): 107.23 mg/dL
[2]
  hepatic FAS activity: decreased significantly compared to those in other high-fat diet groups
[3]
  accumulation / size of adipocytes in the liver tissues: smaller than that in the liver tissues of other high-fat diet groups
[4]
  hepatic mRNA expression level of FAS: much significantly lower than those in the ND group
